pIC50: −log10 of the molar value.
How the values were obtained:
human NK1 receptor = human NK1 receptor (Homo sapiens (Human), UniProt P25103); test: Human NK1 receptor binding assay: radioligand (125I-Bolton-Hunter-SP) binding inhibition using receptor from human lymphoblast cells (IM-9)
Experimental: 42, p. […] The receptor was prepared from human lymphoblast cells (IM-9).

[1] = target: human NK2 (hNK2) receptor (Homo sapiens (Human), UniProt P21452); test: Human NK2 receptor binding assay: radioligand ([125I]-NK-A) binding inhibition using membrane fraction of CHO cells expressing hNK2 receptor; details: CHO cell membrane fraction
Chain of human NK2 (hNK2) receptor (P21452 whole entry): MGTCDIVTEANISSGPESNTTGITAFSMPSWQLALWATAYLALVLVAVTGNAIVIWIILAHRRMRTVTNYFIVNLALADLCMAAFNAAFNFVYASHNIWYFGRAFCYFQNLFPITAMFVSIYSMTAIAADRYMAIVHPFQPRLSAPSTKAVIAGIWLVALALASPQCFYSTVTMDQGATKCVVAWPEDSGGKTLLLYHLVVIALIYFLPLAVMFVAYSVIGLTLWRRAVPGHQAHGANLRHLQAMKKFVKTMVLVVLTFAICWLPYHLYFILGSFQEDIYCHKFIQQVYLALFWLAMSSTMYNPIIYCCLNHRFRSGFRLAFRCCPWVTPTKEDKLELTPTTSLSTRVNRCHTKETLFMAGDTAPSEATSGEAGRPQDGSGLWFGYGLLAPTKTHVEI
Experimental: CHO cells expressing hNK2 receptor were cultured in a HAM-F12 medium containing 400 μg/mL geneticin, 100 U/mL penicillin, 100 μg/mL streptomycin and 10% inactivated serum. The medium was removed, the adhered cells were washed with PBS, and PBS containing 5 mM EDTA was added to detach the cells from the flask. The cells were collected by centrifugation, suspended in suspension buffer A (15 mM Tris-HCl (pH 7.5), 2 mM MgCl2, 0.3 mM ethylenediaminetetraacetic acid (EDTA), 1 mM O,O′-bis(2-aminoethyl)ethyleneglycol-N,N,N′,N′-tetraacetic acid (EGTA)), disrupted by a Polytron homogenizer (Kinematika), and centrifuged at 800×g for 10 min. The supernatant was recovered and ultracentrifuged at 100,000×g for 25 min.
Measurement buffer (50 mM Tris-HCl (pH 7.4), 0.02% bovine serum albumin, 2 μg/mL chymostatin, 40 μg/mL bacitracin, 40 μg/mL APMSF, 3 mM MnCl2) (50 μL) was added to a 96-well microassay plate. The membrane reference standard (20 μg/mL) suspended in a measurement buffer was added by 50 μL.
After reaction at 25° C. for 30 min, the reaction was quenched using a cell harvester (PerkinElmer) by rapid filtration on a GF/C filter plate, and the cells were washed 5 times with 250 μL of a 50 mM Tris-HCl buffer (pH 7.4) containing 0.02% bovine serum albumin. The GF/C filter plate was dried, MicroScinti-0 (PerkinElmer) was added by 20 μL, and the radioactivity was measured on a TopCount (PerkinElmer). The GF/C filter plate used had been immersed in 0.3% polyethyleneimine for one day.
The specific binding level is shown by a value obtained by subtracting non-specific binding level from the total binding level. The binding inhibitory activity of the test compound is shown by a ratio of the value obtained by subtracting the measurement value with addition of a test compound from the total binding level, to the value of the specific binding level.

[2] = target: human NK3 (hNK3) receptor (Homo sapiens (Human), UniProt P29371); test: Human NK3 receptor binding assay: radioligand ([125I]-NK-B) binding inhibition using membrane fraction of CHO cells expressing hNK3 receptor; details: CHO cell membrane fraction
Chain of human NK3 (hNK3) receptor (P29371 whole entry): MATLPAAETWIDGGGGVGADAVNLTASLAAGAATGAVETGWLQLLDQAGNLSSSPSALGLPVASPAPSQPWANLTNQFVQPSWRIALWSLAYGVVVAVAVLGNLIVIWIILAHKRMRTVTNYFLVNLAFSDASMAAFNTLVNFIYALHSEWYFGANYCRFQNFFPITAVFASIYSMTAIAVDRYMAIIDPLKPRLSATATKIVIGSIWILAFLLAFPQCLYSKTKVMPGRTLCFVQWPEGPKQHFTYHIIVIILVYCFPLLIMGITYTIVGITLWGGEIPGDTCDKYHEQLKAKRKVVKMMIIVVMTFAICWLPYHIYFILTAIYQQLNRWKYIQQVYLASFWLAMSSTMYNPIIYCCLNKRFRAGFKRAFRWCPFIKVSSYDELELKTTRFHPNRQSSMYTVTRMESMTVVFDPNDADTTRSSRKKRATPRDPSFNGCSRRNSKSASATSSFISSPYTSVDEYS
Experimental: CHO cells expressing hNK3 receptor were cultured in a MEMα medium (Nikken Seibutsu Igaku Kenkyusho, K.K.) containing 100 U/mL penicillin, 100 μg/mL streptomycin and 10% inactivated dialyzed serum. The medium was removed, the adhered cells were washed with PBS, and PBS containing 5 mM EDTA was added to detach the cells from the flask. The cells were collected by centrifugation, suspended in suspension buffer A (50 mM Tris-HCl (pH 7.4) containing 120 mM NaCl, 5 mM KCl, 2 μg/mL chymostatin, 40 μg/mL bacitracin, 40 μg/mL APMSF, 1 mM EDTA), disrupted by a Polytron homogenizer (Kinematika), and centrifuged at 800×g for 10 min. The supernatant was recovered and ultracentrifuged at 100,000×g for 25 min. The precipitation fraction was suspended in suspension buffer B (50 mM Tris-HCl (pH 7.4), 0.02% bovine serum albumin, 2 μg/mL chymostatin, 40 μg/mL bacitracin, 40 μg/mL APMSF, 3 mM MnCl2), and cryopreserved (−80° C.) as a receptor reference standard. […]
After reaction at 25° C. for 30 min, the reaction was quenched using a cell harvester (PerkinElmer) by rapid filtration on a GF/C filter plate, and the cells were washed 5 times with 250 μL of a 50 mM Tris-HCl buffer (pH 7.4) containing 0.02% bovine serum albumin. The GF/C filter plate was dried, MicroScinti-0 (Perkin Elmer) was added by 20 μL, and the radioactivity was measured on a TopCount (PerkinElmer). […]

Chain of human NK1 receptor (P25103 whole entry): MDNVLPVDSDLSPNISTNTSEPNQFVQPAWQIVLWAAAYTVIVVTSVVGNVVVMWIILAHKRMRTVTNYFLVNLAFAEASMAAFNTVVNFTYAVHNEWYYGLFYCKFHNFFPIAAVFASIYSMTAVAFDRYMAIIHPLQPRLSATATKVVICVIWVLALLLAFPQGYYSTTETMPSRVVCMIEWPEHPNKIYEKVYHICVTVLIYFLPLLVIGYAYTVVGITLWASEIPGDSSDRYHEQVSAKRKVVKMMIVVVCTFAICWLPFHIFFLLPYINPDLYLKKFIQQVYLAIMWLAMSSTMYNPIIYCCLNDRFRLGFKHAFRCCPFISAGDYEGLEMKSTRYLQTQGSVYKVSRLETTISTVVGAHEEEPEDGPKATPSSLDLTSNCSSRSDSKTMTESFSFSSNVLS

| SMILES | melting point [°C] | further results |
| --- | --- | --- |
| COc1ccc(C(=O)N(C)[C@@H]2CCN(C(=O)C3CCN(C(C)=O)CC3)C[C@H]2c2ccc(Cl)c(Cl)c2)cc1 | 134 to 136 |  |
| CC(=O)N1CCC(C(=O)N2CC[C@@H](N(C)C(=O)c3ccc(Br)cn3)[C@H](c3ccc(Cl)c(Cl)c3)C2)CC1 | 128 to 130 |  |
| CC(=O)N1CCC(C(=O)N2CC[C@@H](N(C)C(=O)c3ccc(Cl)cc3)[C@H](c3ccc(Cl)c(Cl)c3)C2)CC1.O (hydrate or solvate) | 113 to 115 |  |
| CN(C(=O)c1ccc(Cl)cc1)[C@@H]1CCN(C(=O)C2CCN(C(=O)CO)CC2)C[C@H]1c1ccc(Cl)c(Cl)c1.O (hydrate or solvate) | 128 to 131 |  |
| CN(C(=O)c1ccc(C(F)(F)F)cc1)[C@@H]1CCN(C(=O)C2CCN(C(=O)CO)CC2)C[C@H]1c1ccc(Cl)c(Cl)c1.O (hydrate or solvate) | 124 to 127 |  |
| CN(C(=O)c1ccc(Br)cc1)[C@@H]1CCN(C(=O)C2CCN(C(=O)CO)CC2)C[C@H]1c1ccc(Cl)c(Cl)c1.O (hydrate or solvate) | 130 to 132 |  |
| CC(=O)N1CCC(C(=O)N2CC[C@@H](N(C)C(=O)c3ccc(N4CCOCC4)cc3)[C@H](c3ccc(Cl)c(Cl)c3)C2)CC1.O (hydrate or solvate) [Example 268, N-[(3R,4R)-1-[(1-acetylpiperidin-4-yl)carbonyl]-3-(3,4-dichlorophenyl)piperidin-4-yl]-N-methyl-4-morpholin-4-ylbenzamide monohydrate] | 136 to 139 |  |
| CC(=O)N1CCC(C(=O)N2CC[C@@H](N(C)C(=O)c3ccc(-c4ccccc4)cc3)[C@H](c3ccc(Cl)c(Cl)c3)C2)CC1 (racemic) [Example 31, N-[(3R*,4R*)-1-[(1-acetylpiperidin-4-yl)carbonyl]-3-(3,4-dichlorophenyl)piperidin-4-yl]-N-methylbiphenyl-4-carboxamide] |  | pIC50 (human NK1 receptor; radioligand binding inhibition, IM-9 cell receptor, read-out: hNK1 IC50): 6.39; pIC50 [1]: 8.77; pIC50 [2]: 6.80 |
| CC(=O)N1CCC(C(=O)N2C[C@@H](N(C)C(=O)c3cc(C(F)(F)F)cc(C(F)(F)F)c3)[C@H](c3ccc(Cl)c(Cl)c3)C2)CC1 (racemic) [Example 82, N-[(3S*,4R*)-1-[(1-acetylpiperidin-4-yl)carbonyl]-4-(3,4-dichlorophenyl)pyrrolidin-3-yl]-N-methyl-3,5-bis(trifluoromethyl)benzamide] |  | pIC50 [1]: 8.66 |
| CC(=O)N1CCC(C(=O)N2CC[C@@H](N(C)C(=O)c3ccc(N4CCOCC4)cc3)[C@H](c3ccc(Cl)c(Cl)c3)C2)CC1.O [Example 268, N-[(3R,4R)-1-[(1-acetylpiperidin-4-yl)carbonyl]-3-(3,4-dichlorophenyl)piperidin-4-yl]-N-methyl-4-morpholin-4-ylbenzamide monohydrate] |  | hNK1 % inh. (10 μM) (human NK1 receptor; 10 μM): 58.2% inh.; pIC50 [1]: 9.38 |
| CN(C(=O)c1ccc(Cl)cc1)[C@@H]1CCN(C(=O)Nc2ccc(F)nc2)C[C@H]1c1ccc(Cl)c(Cl)c1 [Example 516, (3R,4R)-4-{[(4-chlorophenyl)carbonyl](methyl)amino}-3-(3,4-dichlorophenyl)-N-(6-fluoropyridin-3-yl)piperidine-1-carboxamide] | 156 to 158 |  |

From patent publication US8470816B2, “Nitrogen-containing heterocyclic compound and use thereof” (Takeda Pharmaceutical Company Limited, priority 2007, dated 2013)
